From article PMC10166890, “Screening for DAX1/EWS‐FLI1 functional inhibitors identified dihydroorotate dehydrogenase as a therapeutic target for Ewing's sarcoma” (Cancer Medicine, 2023)
Entries after “also recorded” stand apart in the source; their conditions may differ. Like-named read-outs stand apart in the source and are kept apart here. Values belong to the compound of their own block, whether it stands above or below them.

Assays:
DAX1 = DAX1 reporter assay (KJMGER8/pAGal9p4‐hDAX1 cells, luciferase); type: cell-based, human; details: for Inhibitory effect on DAX1 reporter activity: overnight treatment; for IC50: Homo sapiens
Method: pAGal9‐hDAX1 and pAPPRE×10‐Luc + were transfected into KJMGER8 cells by electroporation using a Gene Pulser (Bio‐Rad Laboratories, Hercules, CA, USA), and clones stably expressing the DAX1 and luciferase reporter genes under the control of PPRE were selected. The obtained clone was termed KJMGER8/pAGal9p4‐hDAX1. KJMGER8/pAGal9p4‐hDAX1 cells (1.8 × 10^4 cells/well) were seeded in 384‐well white plates (Greiner Japan, Tokyo, Japan) and cultured in RPMI1640‐IPTSG medium containing 10 nM 17β‐estradiol (E2; Sigma‐Aldrich), dissolved in ethanol, with test compounds at concentration ranges of 0.01 to 10,000 nM or vehicle (dimethyl sulfoxide [DMSO]). The final DMSO concentration was ≤0.3%, and the ethanol concentration was 0.1%. The next day, Blight‐Glo Luciferase Assay Reagent (Promega, Madison, WI, USA) was added to the medium. The luciferase activity was measured using a TopCount NXT system (PerkinElmer, Waltham, MA, USA). IC50 values were calculated using XLfit version 4 (ID Business Solutions, Surrey, UK).
A DAX1 reporter assay system was constructed with the estrogen‐inducible Namalwa cell (KJMGER8 cell) by co‐transfection with pAGal9‐hDAX1 and pAPPRE×10‐Luc+.[18] In the obtained cell line KJMGER8/pAGal9p4‐hDAX1, DAX1 expression is induced by E2 treatment, and the expressed DAX1 increases luciferase expression. Reporter activity was increased by E2 treatment as expected (Figure S2). […] Using this DAX1 reporter assay system, small‐molecule compounds in an in‐house library were screened to obtain DAX1 inhibitors, and K‐234 was identified (Figure 1).
pAGal9-hDAX1 and pAPPRE×10-Luc+ were transfected into KJMGER8 cells by electroporation using a Gene Pulser (Bio-Rad Laboratories, Hercules, CA, USA), and clones stably expressing the DAX1 and luciferase reporter genes under the control of PPRE were selected. The obtained clone was termed KJMGER8/pAGal9p4-hDAX1. KJMGER8/pAGal9p4-hDAX1 cells (1.8×10^4 cells/well) were seeded in 384-well white plates (Greiner Japan, Tokyo, Japan) and cultured in RPMI1640-IPTSG medium containing 10 nM 17β-estradiol (E2; Sigma-Aldrich), dissolved in ethanol, with test compounds at concentration ranges of 0.01 to 10000 nM or vehicle (dimethyl sulfoxide [DMSO]). The final DMSO concentration was ≤0.3%, and the ethanol concentration was 0.1%. The next day, Blight-Glo Luciferase Assay Reagent (Promega, Madison, WI, USA) was added to the medium. The luciferase activity was measured using a TopCount NXT system (PerkinElmer, Waltham, MA, USA). IC50 values were calculated using XLfit version 4 (ID Business Solutions, Surrey, UK)

A‐673 cells = test: Cell viability assay (XTT), A‐673 cells; type: cell-based, human; details: for GI50: Homo sapiens, A673; for Effect of DHODH overexpression on cell growth inhibitory effect in A‐673 cells: pcDNA3.1hygro(+)‐hDHODH transfected
Method: (§1) AsPC‐1, A‐673, and TC‐71 cells were seeded in 96‐well plates (800 cells/well for AsPC‐1, 2000 cells/well for A‐673, and 400 cells/well for TC‐71) and cultured overnight. Vehicle (DMSO) or a test compound diluted with the medium was then added to the wells (final DMSO concentration was 0.3%), and 72 h later, 2,3‐bis[2‐methoxy‐4‐nitro‐5‐sulfophenynl]‐2H‐tetrazolium‐5‐carboxanilide inner salt (XTT) reagent (Roche Diagnostics, Mannheim, Germany) was added to the medium. After 3‐h incubation at 37°C, the formation of the formazan dye was determined by measuring absorbance at 490 and 650 nm using a SpectraMax 340PC system (Molecular Devices, Sunnyvale, CA, USA).

DHODH [1] = biological target: T1, DHODH (Homo sapiens, UniProt Q02127); test: DHODH inhibition assay, A‐673 mitochondria fraction (orotic acid production, LCMSMS); type: biochemical
T1 construct: The mitochondria fraction was isolated from A‐673 cells using Q proteome Mitochondria Isolation kit; endogenous in cells; host or cells: A-673 cells, mitochondria fraction
T1 sequence (Q02127 whole entry): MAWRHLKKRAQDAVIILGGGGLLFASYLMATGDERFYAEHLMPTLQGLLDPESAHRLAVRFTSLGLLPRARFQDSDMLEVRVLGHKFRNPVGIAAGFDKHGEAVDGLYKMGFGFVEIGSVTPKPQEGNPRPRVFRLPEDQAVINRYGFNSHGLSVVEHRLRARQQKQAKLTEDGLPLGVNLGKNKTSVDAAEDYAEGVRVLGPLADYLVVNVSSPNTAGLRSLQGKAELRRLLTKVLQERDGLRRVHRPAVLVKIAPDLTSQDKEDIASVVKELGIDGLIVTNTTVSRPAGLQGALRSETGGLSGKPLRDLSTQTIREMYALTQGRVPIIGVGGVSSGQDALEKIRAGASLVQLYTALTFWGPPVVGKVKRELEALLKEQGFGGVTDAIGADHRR
Method: The mitochondria fraction was isolated from A‐673 cells using Q proteome Mitochondria Isolation kit (QIAGEN, Hilden, Germany). The protein concentration of the fraction was determined using the DC‐protein assay kit (Bio‐Rad Laboratories, Hercules, CA, USA) with bovine serum albumin (Sigma‐Aldrich) as the standard. […] The reaction was quenched by adding 120 μL of 3 μM 5‐fluoroorotic acid acetonitrile solution. These samples were then centrifuged at 5000 g for 5 min to precipitate proteins, and the supernatant was collected. The samples were diluted 10‐fold with 70% acetonitrile‐water and subjected to liquid chromatography with tandem mass spectrometry (LCMSMS). The analyte was then separated on a hydrophilic interaction chromatography column (PC‐HILIC; 5 μm, 4.6 mm I.D. × 50 mm; Osaka Soda, Osaka, Japan). LCMSMS detection was performed by electrospray ionization in negative ion mode.

DHODH [2] = biological target: T2, DHODH (Mus musculus, UniProt O35435); test: DHODH inhibition with mouse liver mitochondria; type: biochemical; details: mouse liver mitochondria; read-out: DHODH IC50 Mouse
T2 construct: IC50 value for the mouse liver mitochondrial fraction; from tissue; host or cells: mouse liver mitochondria
T2 sequence (O35435 whole entry): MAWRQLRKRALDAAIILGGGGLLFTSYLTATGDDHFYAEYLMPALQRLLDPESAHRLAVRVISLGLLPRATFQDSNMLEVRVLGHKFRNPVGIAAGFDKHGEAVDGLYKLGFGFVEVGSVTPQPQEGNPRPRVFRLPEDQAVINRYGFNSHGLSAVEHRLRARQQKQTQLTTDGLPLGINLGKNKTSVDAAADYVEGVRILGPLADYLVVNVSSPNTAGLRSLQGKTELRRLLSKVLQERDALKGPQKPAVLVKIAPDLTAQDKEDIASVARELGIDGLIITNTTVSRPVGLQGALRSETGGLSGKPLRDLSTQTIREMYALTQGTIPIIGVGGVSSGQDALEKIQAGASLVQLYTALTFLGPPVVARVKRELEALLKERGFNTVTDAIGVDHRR

DHODH [3] = biological target: T3, DHODH (Rattus norvegicus, UniProt Q63707); test: DHODH inhibition with rat liver mitochondria; type: biochemical
T3 construct: from tissue; host or cells: rat liver mitochondria
T3 sequence (Q63707 whole entry): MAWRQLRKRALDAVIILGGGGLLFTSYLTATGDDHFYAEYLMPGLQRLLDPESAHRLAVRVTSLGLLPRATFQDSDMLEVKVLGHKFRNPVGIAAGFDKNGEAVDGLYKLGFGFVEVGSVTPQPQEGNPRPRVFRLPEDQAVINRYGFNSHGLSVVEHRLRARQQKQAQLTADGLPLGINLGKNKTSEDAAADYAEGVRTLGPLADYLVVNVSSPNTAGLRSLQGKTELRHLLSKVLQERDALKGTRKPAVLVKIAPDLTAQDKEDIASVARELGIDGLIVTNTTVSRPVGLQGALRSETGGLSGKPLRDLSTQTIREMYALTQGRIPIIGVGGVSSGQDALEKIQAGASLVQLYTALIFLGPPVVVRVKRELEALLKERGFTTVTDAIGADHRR

EWS‐FLI1‐related genes = test: EWS‐FLI1‐related gene expression in A‐673 cells (RT‐qPCR); type: cell-based, human; details: 48 h; for Expression of DAX1, IGFBP3, and DKK1 in A‐673 cells / Effect of uridine addition on up‐regulation of DAX1, IGFBP3, and DKK1: 1000 nmol/L; for Effect of uridine addition on up‐regulation of DAX1, IGFBP3, and DKK1: uridine 100 μM
Method: Total RNA was extracted using the RNeasy Plus Mini kit (Qiagen, Valencia, CA, USA) according to the manufacturer's protocol. cDNA was synthesized from 1 μg of total RNA using a SuperScript VILO cDNA synthesis kit (Thermo Fisher Scientific). Real‐time PCR was carried out using TaqMan Fast Universal PCR Master Mix (Thermo Fisher Scientific).
FIGURE 3 EWS‐FLI1‐related gene expression after treatment with DAX1 inhibitors and knockdown of FLI1 in A‐673 cells. (A) A‐673 cells were treated with siRNA of FLI1 (siFLI‐1, siFLI‐2) or control siRNA (control siRNA1, control siRNA2) for 24 h, and EWS‐FLI1‐related genes were analyzed (details of siRNA are shown in Table S2). The gene expression was normalized by the GAPDH expression and normalized by the mean of control siRNA‐treated samples. Each bar represents the mean of duplicate measurements. (B) A‐673 cells were treated with PTC299 at 1000 nM for 48 h, and EWS‐FLI1‐related genes were analyzed. Gene expression was normalized by the GAPDH expression and by DMSO‐treated samples. Each bar represents the mean of duplicate measurements.
FIGURE 6 Influence of DHODH overexpression on Ewing's sarcoma cell growth and the EWS‐FLI1‐regulated gene expression. (A) pcDNA3.1hygro(+)‐hDHODH was transfected into A‐673 cells. The A‐673 cells with DHODH or control A‐673 cells were treated with indicated concentrations of PTC299 and KF20444 for 72 h, and cell viability was measured. Each plot represents the mean of triplicate measurements. (B) A‐673 cells with or without uridine (100 μM) were treated with indicated concentrations of PTC299 for 72 h, and cell viability was measured. Each plot represents the mean of triplicate measurements. (C) A‐673 cells with or without uridine (100 μM) were treated with PTC299 and KF20444 at 1000 nmol/L for 48 h, and the EWS‐FLI1‐related gene expression was evaluated. The expression was normalized by GAPDH and by DMSO‐treated samples. (D) KJMGER8/pAGal9p4‐hDAX1 cells with or without uridine (100 μM) were treated with indicated concentrations of PTC299 and K‐733 overnight, and the luciferase activity was measured. Each plot represents the mean of quadruplicate measurements.

TC‐71 cells = test: Cell viability assay (XTT), TC‐71 cells; type: cell-based, human; details: 72 h
Method: as §1

SK‐ES‐1 cells = test: Cell viability, SK‐ES‐1 cells; type: cell-based, human; details: 120 h, type 2 fusion
Method: (§2) FIGURE 2 K‐234 influences the growth of Ewing's sarcoma. (A) Ewing's sarcoma‐derived A‐673 and TC‐71 cells and human pancreas adenocarcinoma‐derived AsPC‐1 cells as a control were treated with indicated concentrations of K‐234 for 72 h, and cell viability was measured. Each value represents the mean of duplicate measurements. (B) Ewing's sarcoma with type 2‐fusion gene‐derived SK‐ES‐1, RD‐ES, and MHH‐ES‐1 cells and Ewing's sarcoma with EWS‐ERG fusion gene‐derived CADO‐ES1 cells were treated with indicated concentrations of K‐234 for 120 h, and cell viability was measured. Each value represents the mean of duplicate measurements.

RD‐ES cells = test: Cell viability, RD‐ES cells; type: cell-based, human; details: 120 h, type 2 fusion
Method: as §2

MHH‐ES‐1 cells = test: Cell viability, MHH‐ES‐1 cells; type: cell-based, human; details: 120 h, type 2 fusion
Method: as §2

CADO‐ES1 cells = test: Cell viability, CADO‐ES1 cells; type: cell-based, human; details: 120 h, EWS‐ERG fusion
Method: as §2

[4] = KJMGER8, Table S3, read-out: DAX1 reporter IC50
[5] = 50% growth inhibition concentration, A‐673 cells
[6] = KJMGER8/pAGal9p4‐hDAX1 cells, 10 nM E2, overnight, read-out: IC50 for inhibition of DAX1 reporter activity

Compound: CC(=O)O[C@H]1C(=O)[C@@]2(C)[C@H]([C@H](OC(=O)c3ccccc3)[C@]3(O)C[C@H](OC(=O)[C@H](O)[C@@H](NC(=O)c4ccccc4)c4ccccc4)C(C)=C1C3(C)C)[C@]1(OC(C)=O)CO[C@@H]1C[C@@H]2O [Paclitaxel]
Inhibitory effect on DAX1 reporter activity (DAX1): did not inhibit
Inhibitory effect on DAX1 reporter activity (DAX1; listed as paclitaxel): did not show a remarkable inhibitory effect

Compound: CC(=O)N1CCc2c([nH]c3ccc(Br)cc23)C1c1ccccc1 (stereo not drawn) [NSC 665564]
IC50 (DAX1; [4]): 666 nM
GI50 (A‐673 cells; [5]): 119 nM
IC50 (DHODH [1]; Table S3, read-out: DHODH IC50): 3.49 nM

Compound: Cc1c(-c2ccc(-c3ccccc3F)cc2)nc2ccc(F)cc2c1C(=O)O [Brequinar]
IC50 (DAX1; [4]): 73 nM
GI50 (A‐673 cells; [5]): 115 nM

Compound: O=C(Oc1ccccc1)N1CCc2c([nH]c3ccc(Cl)cc23)C1c1ccc(Cl)cc1 (stereo not drawn) [K‐234, phenyl 6‐chloro‐1‐(4‐chlorophenyl)‐1,3,4, 9‐tetrahydro‐2H‐pyrido[3,4‐b]indole‐2‐carboxylate]
IC50 (DAX1; [6]): 94.5 nM
Cell viability of A‐673 cells (A‐673 cells; 72 h): significantly reduced the viability
Cell viability of TC‐71 cells (TC‐71 cells): significantly reduced the viability
Cell viability of SK‐ES‐1 cells (SK‐ES‐1 cells): significantly reduced the viability
Cell viability of RD‐ES cells (RD‐ES cells): significantly reduced the viability
Cell viability of MHH‐ES‐1 cells (MHH‐ES‐1 cells): significantly reduced the viability
Cell viability of CADO‐ES1 cells (CADO‐ES1 cells): significantly reduced the viability

Compound: C/C(O)=C(\C#N)C(=O)Nc1ccc(C(F)(F)F)cc1 [Teriflunomide]
IC50 (DAX1; [4]): 8500 nM
GI50 (A‐673 cells; Figure 7 legend): > 10000 nM

The next lines start with results.

IC50 (DAX1; [4]): 13.2 nM
IC50 (DHODH [1]; Table S3, read-out: DHODH IC50): 16.8 nM
IC50 (DHODH [2]): 6.1 nM
IC50 (DHODH [3]): 34.1 nM
Compound: O=C(O)c1c2c(nc3ccc(F)cc13)-c1ccc(-c3ccccc3F)cc1CCC2 [KF20444]
Cell viability of A‐673 cells (A‐673 cells; 72 h): reduced the cell viability
Effect of DHODH overexpression on cell growth inhibitory effect in A‐673 cells (A‐673 cells; 72 h): weakened; also recorded: partially attenuated
GI50 (A‐673 cells; [5]): 22.2 nM
Expression of DAX1, IGFBP3, and DKK1 in A‐673 cells (EWS‐FLI1‐related genes): up‐regulated
Effect of uridine addition on up‐regulation of DAX1, IGFBP3, and DKK1 (EWS‐FLI1‐related genes): abrogated

IC50 (DAX1; [6]): 33 nM
IC50 (DHODH [1]; read-out: IC50 for orotic acid production through DHODH): 4.13 nM
IC50 (DHODH [2]): 103 nM
IC50 (DHODH [3]): 1520 nM
Compound: COc1ccc([C@H]2c3[nH]c4ccc(Cl)cc4c3CCN2C(=O)Oc2ccc(Cl)cc2)cc1 [PTC299, 4‐chlorophenyl (S)‐6‐chloro‐1‐(4‐methoxyphenyl)‐1,3,4,9‐tetrahydro‐2H‐pyrido[3,4‐b]indole‐2‐carboxylate]
Effect of uridine addition on inhibition of DAX1 reporter activity (DAX1; uridine 100 μM, overnight): completely abrogated
Cell viability of A‐673 cells (A‐673 cells; 72 h): decreased the viability
Effect of knockdown and overexpression of DAX1 on the reduction in viability of A‐673 cells (A‐673 cells; 72 h): no marked effect
Effect of DHODH overexpression on cell growth inhibitory effect in A‐673 cells (A‐673 cells; 72 h): significantly attenuated; also recorded: completely canceled
GI50 (A‐673 cells; [5]): 5.11 nM
Effect of uridine addition on growth inhibitory effect in A‐673 cells (A‐673 cells; uridine 100 μM, 72 h): completely blocked; also recorded: completely canceled
Cell viability of TC‐71 cells (TC‐71 cells): decreased the viability
DAX1 expression in A‐673 cells (EWS‐FLI1‐related genes; 1000 nM): slightly induced
Expression of DAX1, IGFBP3, and DKK1 in A‐673 cells (EWS‐FLI1‐related genes): up‐regulated
Effect of uridine addition on up‐regulation of DAX1, IGFBP3, and DKK1 (EWS‐FLI1‐related genes): abrogated
